Test results: patent US12662469B2 (SIRONAX LTD, priority 2018, dated 2026)
Where two headings read alike, the source gives them in different places.

System: Cell Necrosis
Assay: Cell necrosis assay / cell viability assay (necrosis inhibitor activity)
Type: cell-based
Conditions: necrosis inhibitor activity, read-out: EC50
[1] = EC data for 14-191 extrapolated

Structure (SMILES)	EC50 [1] [µM]	EC50 (compounds outside 14-191) [µM]
C[C@@H]1CN(c2ncc(F)cn2)CCN1C(=O)N1N=CCC1c1ccccc1 (stereo partly drawn) [Compound 114B, ((R)-4-(5-fluoropyrimidin-2-yl)-2-methylpiperazin-1-yl)(5-phenyl-4,5-dihydro-1H-pyrazol-1-yl)methanone]	1 to 10	–
O=C(N1CC(=Cc2ccn3nccc3c2)C1)N1N=CC[C@H]1c1cc(F)cc(F)c1 [Compound 288, (S)-(5-(3,5-difluorophenyl)-4,5-dihydro-1H-pyrazol-1-yl)(3-(pyrazolo[1,5-a]pyridin-5-ylmethylene)azetidin-1-yl)methanone]	–	0.001 to 1
N#Cc1cnc(N2CCN(C(=O)N3N=CC[C@H]3c3cc(F)cc(F)c3)CC2)nc1 [Compound 385, (S)-2-(4-(5-(3,5-difluorophenyl)-4,5-dihydro-1H-pyrazole-1-carbonyl)piperazin-1-yl)pyrimidine-5-carbonitrile]	–	0.001 to 1
N#Cc1ccc(O[C@@H]2CCN(C(=O)N3N=CC[C@H]3c3cc(F)cc(F)c3)C2)c(Cl)n1 [Compound 365, 6-chloro-5-(((R)-1-((S)-5-(3,5-difluorophenyl)-4,5-dihydro-1H-pyrazole-1-carbonyl)pyrrolidin-3-yl)oxy)picolinonitrile]	–	0.001 to 1
O=C(N1CC(Cc2cccc(Cl)c2)C1)N1N=CCC1c1ccccc1 (stereo not drawn) [Compound 48, (3-(3-chlorobenzyl)azetidin-1-yl)(5-phenyl-4,5-dihydro-1H-pyrazol-1-yl)methanone]	0.001 to 1	–
CN(C(=O)OC(C)(C)C)c1nccc(O[C@@H]2CCN(C(=O)N3N=CC[C@H]3c3cc(F)cc(F)c3)C2)n1 [Compound 366, tert-butyl (4-(((R)1-((S)-5-(3,5-difluorophenyl)-4,5-dihydro-1H-pyrazole-1-carbonyl)pyrrolidin-3-yl)oxy)pyrimidin-2-yl)(methyl)carbamate]	–	0.001 to 1
Nc1nccc(O[C@@H]2CCN(C(=O)N3N=CC[C@H]3c3cc(F)cc(F)c3)C2)n1 [Compound 367, ((R)-3-((2-aminopyrimidin-4-yl)oxy)pyrrolidin-1-yl)((S)-5-(3,5-difluorophenyl)-4,5-dihydro-1H-pyrazol-1-yl)methanone]	–	0.001 to 1
O=C(N1CC[C@@H](Oc2cccc(Cl)c2)C1)N1N=CCC1c1ccccc1 (stereo partly drawn) [Compound 35, ((R)-3-(3-chlorophenoxy)pyrrolidin-1-yl)(5-phenyl-4,5-dihydro-1H-pyrazol-1-yl)methanone]	1 to 10	0.001 to 1
O=C(NC1CCN(c2ccccc2)C1)N1N=CCC1c1ccccc1 (stereo not drawn) [Compound 24, 5-phenyl-N-(1-phenylpyrrolidin-3-yl)-4,5-dihydro-1H-pyrazole-1-carboxamide]	0.001 to 1	–
O=C(N1CCN(c2ncc(Cl)cn2)CC1)N1N=CCC1c1ccccc1 (stereo not drawn) [Compound 88, (4-(5-chloropyrimidin-2-yl)piperazin-1-yl)(5-phenyl-4,5-dihydro-1H-pyrazol-1-yl)methanone]	0.001 to 1	–
O=C1COc2cc(F)c(OC3CN(C(=O)N4N=CC[C@H]4c4cncc(F)c4)C3)cc2N1 [Compound 194, (S)-7-fluoro-6-((1-(5-(5-fluoropyridin-3-yl)-4,5-dihydro-1H-pyrazole-1-carbonyl)azetidin-3-yl)oxy)-2H-benzo[b][1,4]oxazin-3(4H)-one]	–	0.001 to 1
O=C1COc2ccc(OC3CN(C(=O)N4N=CC[C@H]4c4cc(F)cc(F)c4)C3)cc2N1 [Compound 201, (S)-6-((1-(5-(3,5-difluorophenyl)-4,5-dihydro-1H-pyrazole-1-carbonyl)azetidin-3-yl)oxy)-2H-benzo[b][1,4]oxazin-3(4H)-one]	–	0.001 to 1
NC(=O)c1cc(OC2CN(C(=O)N3N=CCC3c3cc(F)cc(F)c3)C2)ccc1F (stereo not drawn) [Compound 159]	0.001 to 1	–
C[C@H]1CN(c2ncc(F)cn2)CCN1C(=O)N1N=CC[C@@H]1c1cccc(F)c1 [Compound 117B, ((R)-5-(3-fluorophenyl)-4,5-dihydro-1H-pyrazol-1-yl)((S)-4-(5-fluoropyrimidin-2-yl)-2-methylpiperazin-1-yl)methanone]	0.001 to 1	–
O=C(N1CCN(c2cccnn2)CC1)N1N=CCC1c1ccccc1 (stereo not drawn) [Compound 89, (5-phenyl-4,5-dihydro-1H-pyrazol-1-yl)(4-(pyridazin-3-yl)piperazin-1-yl)methanone]	1 to 10	–
NC(=O)c1cnc2ccc(O[C@@H]3CCN(C(=O)N4N=CC[C@H]4c4cc(F)cc(F)c4)C3)nn12 [Compound 241, 6-(((R)-1-((S)-5-(3,5-difluorophenyl)-4,5-dihydro-1H-pyrazole-1-carbonyl)pyrrolidin-3-yl)oxy)imidazo[1,2-b]pyridazine-3-carboxamide]	–	0.001 to 1
O=C(NC1CCCC1)N1N=CCC1c1ccccc1 (stereo not drawn) [Compound 5, N-cyclopentyl-5-phenyl-4,5-dihydro-1H-pyrazole-1-carboxamide]	–	0.001 to 1
C[C@H]1CN(c2ncc(C#N)cn2)CCN1C(=O)N1N=CCC1c1ccccc1 (stereo partly drawn) [Compound 116B, 2-((3S)-3-methyl-4-(5-phenyl-4,5-dihydro-1H-pyrazole-1-carbonyl)piperazin-1-yl)pyrimidine-5-carbonitrile]	1 to 10	–
Cc1csc(OC2CN(C(=O)N3N=CCC3c3cc(F)cc(F)c3)C2)n1 (stereo not drawn) [Compound 175]	0.001 to 1	–

Structure (SMILES)	EC50 [1] [µM]	EC50 (compounds outside 14-191) [µM]
O=C1CCc2ccc(C=C3CN(C(=O)N4N=CCC4c4cc(F)cc(F)c4)C3)cc2N1 (stereo not drawn) [Compound 277, 7-((1-(5-(3,5-difluorophenyl)-4,5-dihydro-1H-pyrazole-1-carbonyl)azetidin-3-yildene)methyl)-3,4-dihydroquinolin-2(1H)-one]	–	0.001 to 1
O=C(N1CC(Oc2ccc(F)nc2)C1)N1N=CCC1c1ccccc1 (stereo not drawn) [Compound 73, (3-((6-fluoropyridin-3-yl)oxy)azetidin-1-yl)(5-phenyl-4,5-dihydro-1H-pyrazol-1-yl)methanone]	0.001 to 1	–
O=C(N1CC(Oc2ccccc2Cl)C1)N1N=CCC1c1ccccc1 (stereo not drawn) [Compound 64, (3-(2-chlorophenoxy)azetidin-1-yl)(5-phenyl-4,5-dihydro-1H-pyrazol-1-yl)methanone]	0.001 to 1	–
O=C(N1CC(Oc2ccc(O)cc2)C1)N1N=CCC1c1ccccc1 (stereo not drawn) [Compound 70, (3-(4-hydroxyphenoxy)azetidin-1-yl)(5-phenyl-4,5-dihydro-1H-pyrazol-1-yl)methanone]	1 to 10	–
N#Cc1cnc2ccc(N3CCN(C(=O)N4N=CC[C@H]4c4cc(F)cc(F)c4)CC3)nn12 [Compound 383, (S)-6-(4-(5-(3,5-difluorophenyl)-4,5-dihydro-1H-pyrazole-1-carbonyl)piperazin-1-yl)imidazo[1,2-b]pyridazine-3-carbonitrile]	–	0.001 to 1
C[C@H]1CN(c2ncc(F)cn2)CCN1C(=O)N1N=CC[C@H]1c1cc(F)cc(F)c1 [Compound 118A, ((S)-5-(3,5-difluorophenyl)-4,5-dihydro-1H-pyrazol-1-yl)((S)-4-(5-fluoropyrimidin-2-yl)-2-methylpiperazin-1-yl)methanone]	0.001 to 1	–
O=C(N1CC(Cc2cccc(O)c2)C1)N1N=CCC1c1ccccc1 (stereo not drawn) [Compound 44, (3-(3-hydroxybenzyl)azetidin-1-yl)(5-phenyl-4,5-dihydro-1H-pyrazol-1-yl)methanone]	1 to 10	–
O=C(N1CC(Cc2ccccc2)C1)N1N=CCC1c1ccccc1 (stereo not drawn) [Compound 16, (3-benzylazetidin-1-yl)(5-phenyl-4,5-dihydro-1H-pyrazol-1-yl)methanone]	0.001 to 1	–
C[C@@H]1CN(c2ncc(F)cn2)C[C@H](C)N1C(=O)N1N=CCC1c1cccc(F)c1 (stereo partly drawn) [Compound 29, (5-(3-fluorophenyl)-4,5-dihydro-1H-pyrazol-1-yl)((2R,6S)-4-(5-fluoropyrimidin-2-yl)-2,6-dimethylpiperazin-1-yl)methanone]	0.001 to 1	–
Nc1ccc(F)c(OC2CN(C(=O)N3N=CC[C@H]3c3cc(F)cc(F)c3)C2)n1 [Compound 251, (S)-(3-((6-amino-3-fluoropyridin-2-yl)oxy)azetidin-1-yl)(5-(3,5-difluorophenyl)-4,5-dihydro-1H-pyrazol-1-yl)methanone]	–	0.001 to 1
O=C(N1CC(=Cc2cc3[nH]nc(Cl)c3cc2F)C1)N1N=CC[C@H]1c1cc(F)cc(F)c1 [Compound 285, (S)-(3-((3-chloro-5-fluoro-1H-indazol-6-yl)methylene)azetidin-1-yl)(5-(3,5-difluorophenyl)-4,5-dihydro-1H-pyrazol-1-yl)methanone]	–	0.001 to 1
O=C(N1CC(Oc2ncc(F)cc2F)C1)N1N=CCC1c1cc(F)cc(F)c1 (stereo not drawn) [Compound 210, (5-(3,5-difluorophenyl)-4,5-dihydro-1H-pyrazol-1-yl)(3-((3,5-difluoropyridin-2-yl)oxy)azetidin-1-)methanone]	–	0.001 to 1
N#Cc1ccc(F)c(C=C2CN(C(=O)N3N=CC[C@H]3c3cc(F)cc(F)c3)C2)c1 [Compound 319, (S)-3-((1-(5-(3,5-difluorophenyl)-4,5-dihydro-1H-pyrazole-1-carbonyl)azetidin-3-ylidene)methyl)-4-fluorobenzonitrile]	–	0.001 to 1
O=C(N1CCC(Cc2ccccc2)C1)N1N=CCC1c1ccccc1 (stereo not drawn) [Compound 17, (3-benzylpyrrolidin-1-yl)(5-phenyl-4,5-dihydro-1H-pyrazol-1-yl)methanone]	0.001 to 1	–
O=C(N1CCCC1)N1N=CCC1c1ccccc1 (stereo not drawn) [Compound 6, (5-phenyl-4,5-dihydro-1H-pyrazol-1-yl)(pyrrolidin-1-yl)methanone]	–	0.001 to 1
C[C@H]1CN(c2ncccn2)CCN1C(=O)N1N=CCC1c1ccccc1 (stereo in doubt) [Compound 112A, (S)-(2-methyl-4-(pyrimidin-2-yl)piperazin-1-yl)(5-phenyl-4,5-dihydro-1H-pyrazol-1-yl)methanone]	0.001 to 1	–
O=C(N1CC(Cc2ccccc2Cl)C1)N1N=CCC1c1ccccc1 (stereo not drawn) [Compound 47, (3-(2-chlorobenzyl)azetidin-1-yl)(5-phenyl-4,5-dihydro-1H-pyrazol-1-yl)methanone]	0.001 to 1	–
CC(=O)Nc1cccc(OC2CN(C(=O)N3N=CCC3c3cc(F)cc(F)c3)C2)c1 (stereo not drawn) [Compound 228, N-(3-((1-(5-(3,5-difluorophenyl)-4,5-dihydro-1H-pyrazole-1-carbonyl)azetidin-3-yl)oxy)phenyl)acetamide]	–	0.001 to 1
NC(=O)c1ccc(C=C2CN(C(=O)N3N=CC[C@H]3c3cc(F)cc(F)c3)C2)cn1 [Compound 295, (S)-5-((1-(5-(3,5-difluorophenyl)-4,5-dihydro-1H-pyrazole-1-carbonyl)azetidin-3-ylidene)methyl)picolinamide]	–	0.001 to 1
